Measurements published in ChEMBL document CHEMBL5226373, “Dichapetalins from the Twigs of Dichapetalum longipetalum with Cytotoxic Activities” (J Nat Prod, 2023).
Counter-ions that a name gives are not always drawn.

Assays:
Format in all cases: functional, cell-based
HL-60 = experiment: Cytotoxicity against human HL-60 cells assessed as inhibition of cell growth by CCK-8 assay
A549 = experiment: Cytotoxicity against human A549 cells assessed as inhibition of cell growth by CCK-8 assay
MIA PaCa-2 = experiment: Cytotoxicity against human MIA PaCa-2 cells assessed as inhibition of cell growth by CCK-8 assay
SU.86.86 = experiment: Cytotoxicity against human SU-86-86 cells assessed as inhibition of cell growth by CCK-8 assay
YAPC = experiment: Cytotoxicity against human YAPC cells assessed as inhibition of cell growth by CCK-8 assay

`C/C(=C\[C@@H]1OC(=O)[C@](O)([C@@H]2CC[C@]34C[C@]23C=C[C@@H]2[C@@]3(C)CC=C(/C=C/c5ccccc5)C(C)(C)[C@@H]3C[C@@H](O)[C@]24C)[C@H]1O)CO` gave an IC50 (HL-60) of 1 µM, an IC50 (A549) of 3.8 µM and an IC50 (MIA PaCa-2) of 0.96 µM.
For `C/C(=C\[C@@H]1C[C@@](O)([C@@H]2CC[C@]34C[C@]23C=C[C@@H]2[C@@]3(C)CC=C(/C=C/c5ccccc5)C(C)(C)[C@@H]3CC(=O)[C@]24C)C(=O)O1)CO`, the IC50 (HL-60) was 1.7 µM, the IC50 (A549) was 2.2 µM and the IC50 (MIA PaCa-2) was 0.77 µM.
Molecule `COc1ccc([C@@H]2C=C3[C@H](C[C@]4(C)[C@H]5C=C[C@]67C[C@]6(CC[C@H]7[C@H]6CO[C@@H](/C=C(\C)CO)[C@@H]6O)[C@]5(C)[C@H](O)C[C@H]4C3(C)C)OO2)cc1` has an IC50 (HL-60) of over 10 µM and an IC50 (A549) of over 10 µM.
Work on `C/C(=C\[C@H]1C[C@@](O)([C@@H]2CC[C@]34C[C@]23CC[C@@H]2[C@@]3(C)Cc5oc(-c6ccccc6)cc5C(C)(C)[C@@H]3C[C@H](O)[C@]24C)C(=O)O1)CO` yielded an IC50 (HL-60) of over 10 µM and an IC50 (A549) of over 10 µM.
For `C/C(=C\[C@H]1C[C@@H]([C@@H]2CC[C@]34C[C@]23C=C[C@@H]2[C@@]3(C)CC=C(/C=C/c5ccccc5)C(C)(C)[C@@H]3C[C@@H](O)[C@]24C)C(=O)O1)CO`, the IC50 (HL-60) was 0.35 µM, the IC50 (A549) was 2.8 µM and the IC50 (MIA PaCa-2) was 0.67 µM. The IC50 (SU.86.86) was 1.6 µM and the IC50 (YAPC) was 6.7 µM.
Work on `C/C(=C\[C@H]1C[C@@](O)([C@@H]2CC[C@]34C[C@]23C=C[C@@H]2[C@@]3(C)CC=C(/C=C\c5ccccc5)C(C)(C)[C@@H]3CC(=O)[C@]24C)C(=O)O1)CO` yielded an IC50 (HL-60) of 1.3 µM, an IC50 (A549) of 3.7 µM and an IC50 (MIA PaCa-2) of 2.8 µM.
`C/C(=C\[C@@H]1OC(=O)[C@H]([C@@H]2CC[C@]34C[C@]23C=C[C@@H]2[C@@]3(C)CC(=O)/C(=C\C(=O)c5ccccc5)C(C)(C)[C@@H]3C[C@H](O)[C@]24C)[C@H]1O)CO` showed an IC50 (HL-60) of over 10 µM and an IC50 (A549) of over 10 µM.
Molecule `C/C(=C\[C@@H]1OC(=O)[C@H]([C@@H]2CC[C@]34C[C@]23C=C[C@@H]2[C@@]3(C)CC=C(/C=C/c5ccccc5)C(C)(C)[C@@H]3C[C@H](O)[C@]24C)[C@H]1O)CO` has an IC50 (HL-60) of 0.28 µM, an IC50 (A549) of 1.8 µM and an IC50 (MIA PaCa-2) of 0.93 µM.
In the case of `COc1ccc([C@H]2C=C3[C@@H](C[C@]4(C)[C@H]5C=C[C@]67C[C@]6(CC[C@H]7[C@H]6CO[C@@H](/C=C(\C)CO)[C@@H]6O)[C@]5(C)[C@H](O)C[C@H]4C3(C)C)OO2)cc1`, the IC50 (HL-60) is reported as over 10 µM and the IC50 (A549) is reported as over 10 µM.
`C/C(=C\[C@H]1C[C@@](O)([C@@H]2CC[C@]34C[C@]23C=C[C@@H]2[C@@]3(C)CC(=O)/C(=C\C(=O)c5ccccc5)C(C)(C)[C@@H]3C[C@@H](O)[C@]24C)C(=O)O1)CO` was tested, and the IC50 (HL-60) was over 10 µM and the IC50 (A549) was 9.4 µM.
`COc1ccc(C(=O)[C@@H]2O[C@]23C(=O)C[C@]2(C)[C@H]4C=C[C@]56C[C@]5(CC[C@H]6[C@H]5C(=O)O[C@@H](/C=C(\C)CO)[C@@H]5O)[C@]4(C)[C@H](O)C[C@H]2C3(C)C)cc1` gave an IC50 (HL-60) of over 10 µM and an IC50 (A549) of over 10 µM.
For `CC(=O)O[C@@]1(C)CO[C@@]2(C1)OC(=O)[C@H]([C@@H]1CC[C@]34C[C@]13C=C[C@@H]1[C@@]3(C)CC=C5C[C@@H](c6ccccc6)OC[C@]5(C)[C@@H]3C[C@H](O)[C@]14C)[C@H]2O`, the IC50 (HL-60) was over 10 µM and the IC50 (A549) was 3.3 µM.
`C/C(=C\[C@@H]1OC(=O)[C@H]([C@@H]2CC[C@]34C[C@]23C=C[C@@H]2[C@@]3(C)CC=C(/C=C\c5ccccc5)C(C)(C)[C@@H]3C[C@@H](O)[C@]24C)[C@H]1O)CO` gave an IC50 (HL-60) of 3.3 µM, an IC50 (A549) of 9.2 µM and an IC50 (MIA PaCa-2) of over 10 µM.
For `C/C(=C\[C@H]1C[C@@](O)([C@@H]2CC[C@]34C[C@]23C=C[C@@H]2[C@@]3(C)CC=C5C[C@@H](c6ccccc6)OC[C@]5(C)[C@@H]3C[C@@H](O)[C@]24C)C(=O)O1)CO`, the IC50 (HL-60) was over 10 µM and the IC50 (A549) was 1.1 µM.
`COc1ccc(/C=C/C2=CC[C@]3(C)[C@H]4C=C[C@]56C[C@]5(CC[C@H]6[C@H]5C(=O)O[C@@H](/C=C(\C)CO)[C@@H]5O)[C@]4(C)[C@H](O)C[C@H]3C2(C)C)cc1` was tested, and the IC50 (HL-60) was 0.36 µM, the IC50 (A549) was 1.2 µM and the IC50 (MIA PaCa-2) was 0.39 µM. The IC50 (SU.86.86) was 1.7 µM and the IC50 (YAPC) was over 10 µM.
For `COc1cccc2c1C(=O)c1c(O)c3c(c(O)c1C2=O)C[C@@](O)(C(=O)CO)C[C@@H]3O[C@H]1C[C@H](N)[C@H](O)[C@H](C)O1` [DOXORUBICIN HYDROCHLORIDE], the IC50 (MIA PaCa-2) was 0.25 µM, the IC50 (SU.86.86) was 0.33 µM and the IC50 (YAPC) was 0.31 µM.
